ATP hydrolysis assay data for 1 compound are collected here from PMC10355420, “The glutathione import system satisfies the Staphylococcus aureus nutrient sulfur requirement and promotes interspecies competition” (PLOS Genetics, 2023).

This experiment has as its target T1, recombinant GisA, SAUSA300_0200 (Staphylococcus aureus, UniProt A0A0H2XI71).
T1 construct: His-tagged, pET28b, purified from E. coli slyD mutant by Ni-NTA; ATPase subunit alone
T1 sequence (A0A0H2XI71 1-530): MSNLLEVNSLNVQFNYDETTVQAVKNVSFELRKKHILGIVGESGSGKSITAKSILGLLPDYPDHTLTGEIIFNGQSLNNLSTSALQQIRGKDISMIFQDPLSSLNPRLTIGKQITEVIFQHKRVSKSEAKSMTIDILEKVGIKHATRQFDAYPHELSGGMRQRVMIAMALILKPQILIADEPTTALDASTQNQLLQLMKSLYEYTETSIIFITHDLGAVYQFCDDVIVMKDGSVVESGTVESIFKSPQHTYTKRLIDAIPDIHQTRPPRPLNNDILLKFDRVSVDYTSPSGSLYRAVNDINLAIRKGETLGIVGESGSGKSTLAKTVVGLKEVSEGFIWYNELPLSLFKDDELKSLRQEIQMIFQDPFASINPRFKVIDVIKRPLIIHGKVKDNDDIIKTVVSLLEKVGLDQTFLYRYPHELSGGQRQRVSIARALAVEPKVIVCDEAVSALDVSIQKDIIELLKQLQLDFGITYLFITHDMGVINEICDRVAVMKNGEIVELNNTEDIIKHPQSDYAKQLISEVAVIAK
Kind of experiment: ATP hydrolysis assay. As to conditions: GisA alone; details only in supplement. The experiment is classed as biochemical.

As to `Nc1ncnc2c1ncn2[C@@H]1O[C@H](COP(=O)(O)OP(=O)(O)OP(=O)(O)O)[C@@H](O)[C@H]1O` [ATP], the ATP hydrolysis assay result is listed as “recombinant GisA purified from Escherichia coli exhibits ATP hydrolysis activity”.
